The numbers were not newly measured in patent US20090062907A1, “Self-expanding valve for the venous system” (priority 2007, published 2009), which cites them from elsewhere.

For the compound `C[C@H](CCC(=O)O)[C@H]1CC[C@H]2[C@@H]3CC[C@@H]4C[C@H](O)CC[C@]4(C)[C@H]3C[C@H](O)[C@]12C` [Deoxycholic acid], the solubility in alcohol entry (alcohol) is given as “soluble”. Further, the solubility in water result (water) was “sparingly soluble”.
